Measurements taken from patent US11357779B2 (G1 Therapeutics, Inc., priority 2018, dated 2022).
Where two headings read alike, the source gives them in different places.

Assay: Plasma concentration versus time of Compound I and metabolite Compound III in patients dosed QD or BID with Form B of Compound II plus fulvestrant
Assay type: in vivo, human
Conditions: human, plasma, oral; for concentration at 8 day: Day 8; for concentration at 15 day: Day 15; for concentration at 22 day: Day 22
Text: Patients were enrolled into 1 of 2 parallel, independently operating, dose-escalation dosing cohorts with Form B of Compound II administered continuously either once daily (QD) or twice daily (BID) with food with fixed-dose fulvestrant (intramuscularly every 14 days for the first three injections and then every 28 days). Pre- or perimenopausal patients also received goserelin for the duration of study treatment. A […] agonist was started at least 28 days before the first dose of Form B, and those patients who were taking another LHRH agonist were switched to goserelin on Day 1. Patients were split into […] cohorts providing once a day (QD) dosing of 200 mg, 300 mg, 400 mg, 500 mg, or 650 mg of Form B, or twice a day (BID) dosing of 100 mg, 150 mg, or 200 mg of Form B. The second dose in BID cohorts was not administered in the evening until at least 12 hours after the initial morning dose of Form B. The dosing cohorts for Form B of Compound II are provided in Table 1.
Blood samples were collected at the following time points relative to the morning dose of Form B at Day 1 and at Day 29: pre-dose (0 hour) and 1, 2, 3, 4, 6, 8, 10, 12 (prior to the evening dose in the BID cohorts), and 24 (prior to the next day's morning dose) hours after dosing. A 5-minute time window was allowed for samples collected between the predose and 3 hours after Form B dosing. A 15-minute window was allowed for samples collected between 4 to 12 hours after Form B dosing. A 1-hour window was allowed for the sample collected 24 hours after Form B dosing. Blood samples for Compound I PK trough levels were collected pre-dose at Day 8, Day 15, and Day 22 prior to the morning administration of Compound I. Plasma concentrations of Compound I and its metabolite, Compound III, were measured using validated methods.
Analysis of plasma concentration versus time data for calculation of standard pharmacokinetic (PK) parameters following oral administration was conducted using Phoenix WinNonlin version 6.3 using actual blood sampling times.

[1] = 650 mg, Cohort 5, 650 mg QD of Form B, read-out: Trough Compound III Concentration, Max
[2] = 650 mg, Cohort 5, 650 mg QD of Form B, read-out: Trough Compound III Concentration, Mean
[3] = 650 mg, Cohort 5, 650 mg QD of Form B, read-out: Trough Compound III Concentration, Median
[4] = 650 mg, Cohort 5, 650 mg QD of Form B, read-out: Trough Compound III Concentration, Min

SMILES: O=C1NCC2(CCCCC2)n2c1cc1cnc(Nc3ccc(N4CCNCC4)cn3)nc12 [Compound III, 2′-((5-(piperazin-1-yl)pyridin-2-yl)amino)-7′,8′-dihydro-6′H-spiro[cyclohexane-1,9′-pyrazino[1′,2′:1,5]pyrrolo[2,3-d]pyrimidin]-6′-one]
- concentration at 8 h (500 mg, Cohort 4, 500 mg QD of Form B, Day 29, 8.0 h, read-out: Compound III Concentration, Mean): 3.56 ng/mL
- concentration at 8 h (500 mg, Cohort 4, 500 mg QD of Form B, Day 29, 8.0 h, read-out: Compound III Concentration, Min): 3.3 ng/mL
- concentration at 10 h (500 mg, Cohort 4, 500 mg QD of Form B, Day 29, 10.0 h, read-out: Compound III Concentration, Max): 2.88 ng/mL
- concentration at 10 h (500 mg, Cohort 4, 500 mg QD of Form B, Day 29, 10.0 h, read-out: Compound III Concentration, Mean): 2.66 ng/mL
- concentration at 10 h (500 mg, Cohort 4, 500 mg QD of Form B, Day 29, 10.0 h, read-out: Compound III Concentration, Min): 2.52 ng/mL
- concentration at 12 h (500 mg, Cohort 4, 500 mg QD of Form B, Day 29, 12.0 h, read-out: Compound III Concentration, Max): 2.55 ng/mL
- concentration at 12 h (500 mg, Cohort 4, 500 mg QD of Form B, Day 29, 12.0 h, read-out: Compound III Concentration, Mean): 2.33 ng/mL
- concentration at 12 h (500 mg, Cohort 4, 500 mg QD of Form B, Day 29, 12.0 h, read-out: Compound III Concentration, Min): 2.1 ng/mL
- concentration at 24 h (500 mg, Cohort 4, 500 mg QD of Form B, Day 29, […], read-out: Compound III Concentration, Mean): 1.24 ng/mL
- concentration at 24 h (500 mg, Cohort 4, 500 mg QD of Form B, Day 29, […], read-out: Compound III Concentration, Min): 0.959 ng/mL
- concentration at 0 h (650 mg, 650 mg QD of Form B, Day 1, 0.0 h, Mean, read-out: Compound III Concentration): 0 ng/mL
- concentration at 0 h (650 mg, 650 mg QD of Form B, Day 1, 0.0 h, Median, read-out: Compound III Concentration): 0 ng/mL
- concentration at 1 h (650 mg, 650 mg QD of Form B, Day 1, 1.0 h, Mean, read-out: Compound III Concentration): 2.73 ng/mL
- concentration at 1 h (650 mg, 650 mg QD of Form B, Day 1, 1.0 h, Median, read-out: Compound III Concentration): 2.77 ng/mL
- concentration at 2 h (650 mg, 650 mg QD of Form B, Day 1, 2.0 h, Mean, read-out: Compound III Concentration): 4.01 ng/mL
- concentration at 2 h (650 mg, 650 mg QD of Form B, Day 1, 2.0 h, Median, read-out: Compound III Concentration): 3.81 ng/mL
- concentration at 3 h (650 mg, 650 mg QD of Form B, Day 1, 3.0 h, Mean, read-out: Compound III Concentration): 6.13 ng/mL
- concentration at 3 h (650 mg, 650 mg QD of Form B, Day 1, 3.0 h, Median, read-out: Compound III Concentration): 6.43 ng/mL
- concentration at 4 h (650 mg, 650 mg QD of Form B, Day 1, 4.0 h, Mean, read-out: Compound III Concentration): 8.35 ng/mL
- concentration at 4 h (650 mg, 650 mg QD of Form B, Day 1, 4.0 h, Median, read-out: Compound III Concentration): 9.22 ng/mL
- concentration at 6 h (650 mg, 650 mg QD of Form B, Day 1, 6.0 h, Mean, read-out: Compound III Concentration): 9.69 ng/mL
- concentration at 6 h (650 mg, 650 mg QD of Form B, Day 1, 6.0 h, Median, read-out: Compound III Concentration): 10 ng/mL
- concentration at 8 h (650 mg, 650 mg QD of Form B, Day 1, 8.0 h, Mean, read-out: Compound III Concentration): 10.1 ng/mL
- concentration at 8 h (650 mg, 650 mg QD of Form B, Day 1, 8.0 h, Median, read-out: Compound III Concentration): 8.66 ng/mL
- concentration at 10 h (650 mg, 650 mg QD of Form B, Day 1, 10.0 h, Mean, read-out: Compound III Concentration): 6.63 ng/mL
- concentration at 10 h (650 mg, 650 mg QD of Form B, Day 1, 10.0 h, Median, read-out: Compound III Concentration): 5.32 ng/mL
- concentration at 12 h (650 mg, 650 mg QD of Form B, Day 1, 12.0 h, Mean, read-out: Compound III Concentration): 5.12 ng/mL
- concentration at 12 h (650 mg, 650 mg QD of Form B, Day 1, 12.0 h, Median, read-out: Compound III Concentration): 4.41 ng/mL
- concentration at 24 h (650 mg, 650 mg QD of Form B, Day 1, […], Mean, read-out: Compound III Concentration): 2.17 ng/mL
- concentration at 24 h (650 mg, 650 mg QD of Form B, Day 1, […], Median, read-out: Compound III Concentration): 1.51 ng/mL
- concentration at 8 day [1]: 4.96 ng/mL
- concentration at 8 day [2]: 3.55 ng/mL
- concentration at 8 day [3]: 3.79 ng/mL
- concentration at 8 day [4]: 1.65 ng/mL
- concentration at 15 day [1]: 3.6 ng/mL
- concentration at 15 day [2]: 3.13 ng/mL
- concentration at 15 day [3]: 3.52 ng/mL
- concentration at 15 day [4]: 2.28 ng/mL
- concentration at 22 day [1]: 5.65 ng/mL
- concentration at 22 day [2]: 3.7 ng/mL
- concentration at 22 day [3]: 3.11 ng/mL
- concentration at 22 day [4]: 2.34 ng/mL
- concentration at 0 h (650 mg, Cohort 5, 650 mg QD of Form B, Day 29, 0.0 h, read-out: Compound III Concentration, Median): 2.06 ng/mL
- concentration at 0 h (650 mg, Cohort 5, 650 mg QD of Form B, Day 29, 0.0 h, read-out: Compound III Concentration, Min): 1.3 ng/mL
- concentration at 1 h (650 mg, Cohort 5, 650 mg QD of Form B, Day 29, 1.0 h, read-out: Compound III Concentration, Median): 2.49 ng/mL
- concentration at 1 h (650 mg, Cohort 5, 650 mg QD of Form B, Day 29, 1.0 h, read-out: Compound III Concentration, Min): 1.28 ng/mL
- concentration at 2 h (650 mg, Cohort 5, 650 mg QD of Form B, Day 29, 2.0 h, read-out: Compound III Concentration, Median): 3.14 ng/mL
- concentration at 2 h (650 mg, Cohort 5, 650 mg QD of Form B, Day 29, 2.0 h, read-out: Compound III Concentration, Min): 1.85 ng/mL
- concentration at 3 h (650 mg, Cohort 5, 650 mg QD of Form B, Day 29, 3.0 h, read-out: Compound III Concentration, Median): 3.89 ng/mL
- concentration at 3 h (650 mg, Cohort 5, 650 mg QD of Form B, Day 29, 3.0 h, read-out: Compound III Concentration, Min): 2.61 ng/mL
- concentration at 4 h (650 mg, Cohort 5, 650 mg QD of Form B, Day 29, 4.0 h, read-out: Compound III Concentration, Median): 4.78 ng/mL
- concentration at 4 h (650 mg, Cohort 5, 650 mg QD of Form B, Day 29, 4.0 h, read-out: Compound III Concentration, Min): 3.42 ng/mL
- concentration at 6 h (650 mg, Cohort 5, 650 mg QD of Form B, Day 29, 6.0 h, read-out: Compound III Concentration, Median): 7.57 ng/mL
- concentration at 6 h (650 mg, Cohort 5, 650 mg QD of Form B, Day 29, 6.0 h, read-out: Compound III Concentration, Min): 5.3 ng/mL
- concentration at 8 h (650 mg, Cohort 5, 650 mg QD of Form B, Day 29, 8.0 h, read-out: Compound III Concentration, Median): 8.64 ng/mL
- concentration at 8 h (650 mg, Cohort 5, 650 mg QD of Form B, Day 29, 8.0 h, read-out: Compound III Concentration, Min): 5.18 ng/mL
- concentration at 10 h (650 mg, Cohort 5, 650 mg QD of Form B, Day 29, 10.0 h, read-out: Compound III Concentration, Min): 4.64 ng/mL
- concentration at 12 h (650 mg, Cohort 5, 650 mg QD of Form B, Day 29, 12.0 h, read-out: Compound III Concentration, Min): 3.42 ng/mL
- concentration at 24 h (650 mg, Cohort 5, 650 mg QD of Form B, Day 29, […], read-out: Compound III Concentration, Median): 3.04 ng/mL
- concentration at 24 h (650 mg, Cohort 5, 650 mg QD of Form B, Day 29, […], read-out: Compound III Concentration, Min): 2.49 ng/mL
